The source of these data is patent US7531194B2, “Plant extracts for the treatment of rheumatoid arthritis” (Development Center for Biotechnology, priority 2006, dated 2009).

Holding throughout (type): in vivo, Lewis rats
Test [1] has as its system IL-1β. In words: Abdominal cavity cell (PEC) culture, cytokine IL-1β, CIA rats fed PA crude extracts (Embodiment 2). As to conditions: LPS 10 μg/ml, 24 hours, FIG. 8. As to the method:
(§1) The animal test scheme is shown as FIG. 2. Bovine collagen Type II (Bovine C II) was dissolved in 0.1 M acetic acid solution, stirred to dissolve thoroughly, and formulated into solutions with concentrations of 1.5 and 3 mg/ml, which were stored in 4° C. for later use. For the first immune injection, 100 μl of C II solution was emulsified with an equal amount of CFA, and injected subcutaneously (200 μl/rat) in the root portions of tails of the rats after the emulsification was complete. […] After about 15 days, the second immunization was done. 100 μl of C II solution was emulsified with an equal amount of IFA, and injected subcutaneously (200 μl/rat) in the root portions of tails of the rats after the emulsification was complete. Approximately from Day 20, the symptoms of arthritis were observed (CIA rats), and PA and indomethacin were fed until Day 45. [table] 1. After carbon dioxide euthanasia, the outer furs of the rat abdominal cavity were cut out by scissors, to expose the whole abdominal cavity. 2. HBSS buffer was injected into the abdominal cavity batch-wise by a 10 ml syringe to make a total volume of about 20 ml/rat. 3. The abdominal cavity of the rat was opened after the abdomen was gently kneaded. An incision of about 2 cm was made in the abdominal cavity by using scissors. […] The concentrations of cytokine TNF-α, IL-6, and IL-1β were analyzed by using ELISA kit.

Test [2] deals with Rheumatoid factor (RF). In words: Serum RF analysis of CIA rats fed PA crude extracts (Embodiment 2). How it is done: The animal test scheme is shown as FIG. 2. Bovine collagen Type II (Bovine C II) was dissolved in 0.1 M acetic acid solution, stirred to dissolve thoroughly, and formulated into solutions with concentrations of 1.5 and 3 mg/ml, which were stored in 4° C. for later use. For the first immune injection, 100 μl of C II solution was emulsified with an equal amount of CFA, and injected subcutaneously (200 μl/rat) in the root portions of tails of the rats after the emulsification was complete. […] After about 15 days, the second immunization was done. 100 μl of C II solution was emulsified with an equal amount of IFA, and injected subcutaneously (200 μl/rat) in the root portions of tails of the rats after the emulsification was complete. Approximately from Day 20, the symptoms of arthritis were observed (CIA rats), and PA and indomethacin were fed until Day 45. [table] 1. Collagen was formulated in a coating buffer to a concentration of 40 μg/ml, 0.1 ml of which was added into a 96-well micro plate respectively, and was kept in 4° C. overnight. 2. After washing with Tris buffer three times, 0.2 ml of blocking buffer containing 1% BSA was added into each well. The reaction lasted for 2 hours at room temperature, and then was washed by Tris buffer three times again. 3. […] Finally, absorption (O.D) value was read out at the wavelength of 450 nm.

For test [3], the system named is TNF-α. In words: Abdominal cavity cell (PEC) culture, cytokine TNF-α, CIA rats fed PA crude extracts (Embodiment 2). To be noted: LPS 10 μg/ml, 24 hours, FIG. 8. As to the method:
as §1

`COc1ccc2c(c1)c(CC(=O)O)c(C)n2C(=O)c1ccc(Cl)cc1` [indomethacin, Indomethacin]: in test [1], the “inhibition of PEC secreting IL-1β” value is given as “no effect of inhibiting PEC from secreting inflammatory cytokine”. Further, the “reduction of serum RF value” is on record as 47% in test [2] (Day 35 compared with Day 20, FIG. 6) and 51% in test [2] (Day 45 compared with Day 20, FIG. 6). Also, in test [3], the “inhibition of PEC secreting TNF-α” value is “no effect of inhibiting PEC from secreting inflammatory cytokine”.
